Test results taken from ChEMBL document CHEMBL1155332 (Bioorg Med Chem Lett, 2009).
Values belong to the compound of their own block, whether it stands above or below them.

Legend:
Format in all cases: ADME, organism-based
[1] = Bioavailability in […] rat; details: in vivo
[2] = Clearance in iv dosed rat; details: in vivo
[3] = Cmax in squirrel monkey at 10 mg/kg; parameters: dose 10 mg/kg; details: saimiri, in vivo
[4] = Cmax in squirrel monkey at 2 mg/kg; parameters: dose 2 mg/kg; details: saimiri, in vivo
[5] = Cmax in squirrel monkey at 0.4 mg/kg; parameters: dose 0.4 mg/kg; details: saimiri, in vivo

SMILES: Cc1noc(/C(=C/c2cccc(-c3cc(C(C)(C)S(C)(=O)=O)cc4cccnc34)c2)c2ccc(S(C)(=O)=O)cc2)n1
Cmax [3]: 3800 nM
bioavailability [1]: 100%
clearance [2]: 7 mL/min/kg

SMILES: COP(=O)(OC)C(Cc1cccc(-c2cc(C(C)(C)S(C)(=O)=O)cc3cccnc23)c1)c1ccc(S(C)(=O)=O)cc1 (centres undefined)
bioavailability [1]: 3%
clearance [2]: 48 mL/min/kg

SMILES: COP(=O)(OC)C(F)(Cc1cccc(-c2cc(C(C)(C)S(C)(=O)=O)cc3cccnc23)c1)c1ccc(S(C)(=O)=O)cc1 (centres undefined)
bioavailability [1]: 51%
clearance [2]: 177 mL/min/kg

SMILES: CC(C)(c1cc(-c2cccc(CC(c3ccc(S(C)(=O)=O)cc3)S(C)(=O)=O)c2)c2ncccc2c1)S(C)(=O)=O (centres undefined)
bioavailability [1]: 1%
clearance [2]: 76 mL/min/kg

SMILES: CC(C)(c1cc(-c2cccc(CC(F)(c3ccc(S(C)(=O)=O)cc3)S(C)(=O)=O)c2)c2ncccc2c1)S(C)(=O)=O (centres undefined)
bioavailability [1]: 53%
clearance [2]: 9 mL/min/kg

SMILES: CC(C)(c1cc(-c2cccc(CC(F)(c3ccc(S(C)(=O)=O)cc3)C(O)(C3CC3)C3CC3)c2)c2ncccc2c1)S(C)(=O)=O.Cl (single isomer, unassigned)
bioavailability [1]: 69%
clearance [2]: 11 mL/min/kg

SMILES: CC(C)(c1cc(-c2cccc(CC(F)(c3ccc(S(C)(=O)=O)cc3)S(=O)(=O)C3CC3)c2)c2ncccc2c1)S(C)(=O)=O.Cl (single isomer, unassigned)
bioavailability [1]: 36%
clearance [2]: 9 mL/min/kg

SMILES: CC(C)(c1cc(-c2cccc(CC(F)(c3ccc(S(C)(=O)=O)cc3)C(O)(C3CC3)C3CC3)c2)c2ncccc2c1)S(C)(=O)=O (single isomer, unassigned; Enantio B)
Cmax [5]: 100 nM
bioavailability [1]: 99%
clearance [2]: 38 mL/min/kg

Now from value to compound:

bioavailability [1]: 99%
clearance [2]: 8 mL/min/kg
SMILES: CC(C)(c1cc(-c2cccc(CC(F)(c3ccc(S(C)(=O)=O)cc3)C(O)(C3CC3)C3CC3)c2)c2ncccc2c1)S(C)(=O)=O.CCl (centres undefined)

bioavailability [1]: 9%
clearance [2]: 51 mL/min/kg
SMILES: CC(C)(c1cc(-c2cccc(CC(CO)c3ccc(S(C)(=O)=O)cc3)c2)c2ncccc2c1)S(C)(=O)=O (centres undefined)

bioavailability [1]: 84%
clearance [2]: 17 mL/min/kg
SMILES: CC(C)(O)C(F)(Cc1cccc(-c2cc(C(C)(C)S(C)(=O)=O)cc3cccnc23)c1)c1ccc(S(C)(=O)=O)cc1 (centres undefined)

bioavailability [1]: 21%
clearance [2]: 50 mL/min/kg
SMILES: CC(C)(O)C(Cc1cccc(-c2cc(C(C)(C)S(C)(=O)=O)cc3cccnc23)c1)c1ccc(S(C)(=O)=O)cc1 (centres undefined)

Cmax [4]: 1900 nM
bioavailability [1]: 99%
clearance [2]: 3 mL/min/kg
SMILES: CC(C)(c1cc(-c2cccc(CC(F)(c3ccc(S(C)(=O)=O)cc3)S(=O)(=O)C3CC3)c2)c2ncccc2c1)S(C)(=O)=O (single isomer, unassigned; Enantio B)
